Test system: not listed separately
Assay: Ratio of IC50 for human HEPG2 cells to concentration causing antioxidant activity in Salmonella typhimurium TA102 harboring […] mutant
Type: functional
Details: not given
With `Cc1c(C)c2c(c(C)c1OC(=O)CCC(=O)NC1CC(C)(C)N([O])C(C)(C)C1)CCC(C)(C(=O)NC1CC(C)(C)N([O])C(C)(C)C1)O2` (stereo not given) the Ratio was 100 - 1000.

Test system: not listed separately
Assay: Ratio of IC50 for human RPMI8226 cells to concentration causing antioxidant activity in Salmonella typhimurium TA102 harboring […] mutant
Type: functional, RPMI-8226
Details: not given
With `Cc1c(C)c2c(c(C)c1OC(=O)CCC(=O)NC1CC(C)(C)N([O])C(C)(C)C1)CCC(C)(C(=O)NC1CC(C)(C)N([O])C(C)(C)C1)O2` (stereo not given) the Ratio was 100 - 1000.

Test system: not listed separately
Assay: Cytotoxicity against human CEM13 cells assessed as reduction in cell viability after 72 hrs by MTT assay
Type: functional, cell-based
Details: CEM13, 72 h
For `Cc1c(C)c2c(c(C)c1OC(=O)CCC(=O)NC1CC(C)(C)N([O])C(C)(C)C1)CCC(C)(C(=O)NC1CC(C)(C)N([O])C(C)(C)C1)O2` (stereo not given), the IC50 was greater than 300 µM.

Test system: not listed separately
Assay: Ratio of IC50 for human U937 cells to concentration causing antioxidant activity in Salmonella typhimurium TA102 harboring […] mutant
Type: functional, U-937
Details: not given
With `Cc1c(C)c2c(c(C)c1OC(=O)CCC(=O)NC1CC(C)(C)N([O])C(C)(C)C1)CCC(C)(C(=O)NC1CC(C)(C)N([O])C(C)(C)C1)O2` (stereo not given) the Ratio was 100 - 1000.

Test system: not listed separately
Assay: Cytotoxicity against human MCF7 cells assessed as reduction in cell viability after 72 hrs by MTT assay
Type: functional, cell-based
Details: MCF7, 72 h
For `Cc1c(C)c2c(c(C)c1OC(=O)CCC(=O)NC1CC(C)(C)N([O])C(C)(C)C1)CCC(C)(C(=O)NC1CC(C)(C)N([O])C(C)(C)C1)O2` (stereo not given), the IC50 was 62 µM.

Test system: Salmonella enterica subsp. enterica serovar Typhimurium
Assay: Antioxidant activity in Salmonella typhimurium TA102 harboring […] mutant assessed as inhibition of t-BuO2H-dependant mutant formation at 3 uM preincubated with compound followed by t-BuO2H addition after 48 hrs by Ames test
Type: functional
Details: not given
Molecule `Cc1c(C)c2c(c(C)c1OC(=O)CCC(=O)NC1CC(C)(C)N([O])C(C)(C)C1)CCC(C)(C(=O)NC1CC(C)(C)N([O])C(C)(C)C1)O2` (stereo not given) has an inhibition of 25%.

Test system: not listed separately
Assay: Cytotoxicity against hamster AG17-1 cells assessed as reduction in cell viability after 72 hrs by MTT assay
Type: toxicity, cell-based, Cricetulus griseus
Details: Chinese hamster
`Cc1c(C)c2c(c(C)c1OC(=O)CCC(=O)NC1CC(C)(C)N([O])C(C)(C)C1)CCC(C)(C(=O)NC1CC(C)(C)N([O])C(C)(C)C1)O2` (stereo not given) showed an IC50 at 72 h of 54 µM.

Test system: not listed separately
Assay: Ratio of IC50 for human MCF7 cells to concentration causing antioxidant activity in Salmonella typhimurium TA102 harboring […] mutant
Type: functional
Details: not given
With `Cc1c(C)c2c(c(C)c1OC(=O)CCC(=O)NC1CC(C)(C)N([O])C(C)(C)C1)CCC(C)(C(=O)NC1CC(C)(C)N([O])C(C)(C)C1)O2` (stereo not given) the Ratio was 100 - 1000.

Test system: not listed separately
Assay: Cytotoxicity against mouse LMTK cells assessed as reduction in cell viability after 72 hrs by MTT assay
Type: toxicity
Details: not given
With `Cc1c(C)c2c(c(C)c1OC(=O)CCC(=O)NC1CC(C)(C)N([O])C(C)(C)C1)CCC(C)(C(=O)NC1CC(C)(C)N([O])C(C)(C)C1)O2` (stereo not given) the IC50 at 72 h was 133 µM.

Test system: Salmonella enterica subsp. enterica serovar Typhimurium
Assay: Antioxidant activity in Salmonella typhimurium TA102 harboring […] mutant assessed as inhibition of t-BuO2H-dependant mutant formation at 30 uM preincubated with compound followed by t-BuO2H addition after 48 hrs by Ames test
Type: functional
Details: not given
Work on `Cc1c(C)c2c(c(C)c1OC(=O)CCC(=O)NC1CC(C)(C)N([O])C(C)(C)C1)CCC(C)(C(=O)NC1CC(C)(C)N([O])C(C)(C)C1)O2` (stereo not given) yielded an inhibition of 25%.

Test system: Salmonella typhimurium
Assay: Genotoxicity in Salmonella typhimurium TA102 harboring […] mutant assessed as frequency of reversion from histidine auxotrophy to prototrophy at 30 mM after 48 hrs by Ames test (reference value: 209 +/- 10 No _unit)
Type: toxicity, organism-based
Details: salmonella enterica subsp. enterica serovar typhimurium, 30000 µM
Work on `Cc1c(C)c2c(c(C)c1OC(=O)CCC(=O)NC1CC(C)(C)N([O])C(C)(C)C1)CCC(C)(C(=O)NC1CC(C)(C)N([O])C(C)(C)C1)O2` (stereo not given) yielded an Activity of 203.

Test system: not listed separately
Assay: Ratio of IC50 for human MT4 cells to concentration causing antioxidant activity in Salmonella typhimurium TA102 harboring […] mutant
Type: functional
Details: not given
In the case of `Cc1c(C)c2c(c(C)c1OC(=O)CCC(=O)NC1CC(C)(C)N([O])C(C)(C)C1)CCC(C)(C(=O)NC1CC(C)(C)N([O])C(C)(C)C1)O2` (stereo not given), the Ratio is reported as 100 - 1000.

Test system: not listed separately
Assay: Genotoxicity in Escherichia coli PQ37 expressing lacZ gene assessed as ratio of inducible beta-galactosidase activity to alkaline phosphatase activity at 30 mM after 2 hrs by SOS-chromotest relative to control
Type: toxicity
Details: Escherichia coli PQ37 cells expressing lacZ gene, read-out: FC
For `Cc1c(C)c2c(c(C)c1OC(=O)CCC(=O)NC1CC(C)(C)N([O])C(C)(C)C1)CCC(C)(C(=O)NC1CC(C)(C)N([O])C(C)(C)C1)O2` (stereo not given), the fold induction at 2 h, 30000 µM was 1.

Test system: not listed separately
Assay: Cytotoxicity against human CEM13 cells assessed as reduction in cell viability at 300 uM after 72 hrs by MTT assay
Type: functional
Details: CEM13, 72 h
With `Cc1c(C)c2c(c(C)c1OC(=O)CCC(=O)NC1CC(C)(C)N([O])C(C)(C)C1)CCC(C)(C(=O)NC1CC(C)(C)N([O])C(C)(C)C1)O2` (stereo not given) the inhibition at 300 µM was 33%.

Test system: not listed separately
Assay: Cytotoxicity against human HepG2 cells assessed as reduction in cell viability after 72 hrs by MTT assay
Type: functional, cell-based
Details: HepG2, 72 h
`Cc1c(C)c2c(c(C)c1OC(=O)CCC(=O)NC1CC(C)(C)N([O])C(C)(C)C1)CCC(C)(C(=O)NC1CC(C)(C)N([O])C(C)(C)C1)O2` (stereo not given) showed an IC50 of 42 µM.

Test system: not listed separately
Assay: Cytotoxicity against human RPMI8226 cells assessed as reduction in cell viability after 72 hrs by MTT assay
Type: functional, cell-based
Details: RPMI-8226, 72 h
`Cc1c(C)c2c(c(C)c1OC(=O)CCC(=O)NC1CC(C)(C)N([O])C(C)(C)C1)CCC(C)(C(=O)NC1CC(C)(C)N([O])C(C)(C)C1)O2` (stereo not given) showed an IC50 of 68 µM.

Test system: not listed separately
Assay: Ratio of IC50 for human CEM13 cells to concentration causing antioxidant activity in Salmonella typhimurium TA102 harboring […] mutant
Type: functional
Details: not given
In the case of `Cc1c(C)c2c(c(C)c1OC(=O)CCC(=O)NC1CC(C)(C)N([O])C(C)(C)C1)CCC(C)(C(=O)NC1CC(C)(C)N([O])C(C)(C)C1)O2` (stereo not given), the Ratio is reported as 100 - 1000.

Test system: not listed separately
Assay: Cytotoxicity against human MT4 cells assessed as reduction in cell viability after 72 hrs by MTT assay
Type: functional, cell-based
Details: MT4, 72 h
With `Cc1c(C)c2c(c(C)c1OC(=O)CCC(=O)NC1CC(C)(C)N([O])C(C)(C)C1)CCC(C)(C(=O)NC1CC(C)(C)N([O])C(C)(C)C1)O2` (stereo not given) the IC50 was 41 µM.

Test system: not listed separately
Assay: Cytotoxicity against human U937 cells assessed as reduction in cell viability after 72 hrs by MTT assay
Type: functional, cell-based
Details: U-937, 72 h
`Cc1c(C)c2c(c(C)c1OC(=O)CCC(=O)NC1CC(C)(C)N([O])C(C)(C)C1)CCC(C)(C(=O)NC1CC(C)(C)N([O])C(C)(C)C1)O2` (stereo not given) showed an IC50 of 72 µM.

Test system: Salmonella enterica subsp. enterica serovar Typhimurium
Assay: Antioxidant activity in Salmonella typhimurium TA102 harboring […] mutant assessed as inhibition of t-BuO2H-dependant mutant formation at 0.3 uM preincubated with compound followed by t-BuO2H addition after 48 hrs by Ames test
Type: functional
Details: not given
In the case of `Cc1c(C)c2c(c(C)c1OC(=O)CCC(=O)NC1CC(C)(C)N([O])C(C)(C)C1)CCC(C)(C(=O)NC1CC(C)(C)N([O])C(C)(C)C1)O2` (stereo not given), the inhibition is reported as 7%.
